From paper PMC5063381, “Characterization of the Neisseria meningitidis Helicase RecG” (PLoS ONE, 2016) come the findings set out here.

In one assay the target is T1, RecGNm (Neisseria meningitidis, UniProt Q9JY17).
T1 construct: gene recG; ORF in pET28b(+) (pGTB1, NdeI/XhoI), N-terminal 6xHis-tag, expressed in E. coli ER2566; Ni-NTA and Superdex 75
T1 sequence (Q9JY17 1-680): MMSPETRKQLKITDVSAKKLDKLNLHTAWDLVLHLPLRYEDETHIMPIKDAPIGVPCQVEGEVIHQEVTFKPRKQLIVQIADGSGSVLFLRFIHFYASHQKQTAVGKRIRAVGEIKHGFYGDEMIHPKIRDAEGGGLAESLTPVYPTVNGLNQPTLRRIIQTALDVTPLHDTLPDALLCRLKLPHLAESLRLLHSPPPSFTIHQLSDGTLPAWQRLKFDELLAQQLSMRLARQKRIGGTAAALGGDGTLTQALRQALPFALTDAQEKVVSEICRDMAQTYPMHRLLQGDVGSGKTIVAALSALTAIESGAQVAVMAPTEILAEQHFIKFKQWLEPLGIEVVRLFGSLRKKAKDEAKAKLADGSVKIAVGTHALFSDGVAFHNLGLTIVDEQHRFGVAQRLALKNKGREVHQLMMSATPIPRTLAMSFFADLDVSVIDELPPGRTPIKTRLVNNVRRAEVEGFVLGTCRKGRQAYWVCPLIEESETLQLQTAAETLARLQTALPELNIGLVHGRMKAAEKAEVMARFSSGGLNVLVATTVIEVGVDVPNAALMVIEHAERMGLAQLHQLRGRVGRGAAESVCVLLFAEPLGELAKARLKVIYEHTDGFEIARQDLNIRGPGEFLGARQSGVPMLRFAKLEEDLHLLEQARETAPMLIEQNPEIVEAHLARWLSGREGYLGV
The assay can be described thus: TLC ATPase assay with [gamma-32P]ATP. In kind it is biochemical. Conditions: 100 nM DNA cofactor (branched DNA), 2 mM MgCl2, pH 7.5, 37 °C; labelled compound as tracer.

For assay [1], the target named is T2, Neisseria meningitidis DNA repair/recombination helicase RecG (Neisseria meningitidis strain MC58, UniProt Q9JY17 1-680).
T2 construct: RecG helicase of Neisseria meningitidis strain MC58; the ORF was amplified from genomic DNA and cloned into pET28b(+) between XhoI and NdeI (plasmid pGTB1); also called RecGNm; Nm RecG; source: E. coli ER2566, purified (Ni-NTA, gel filtration on Superdex 75)
T2 sequence (looked up): T1 sequence (Q9JY17 1-680)
The assay can be described thus: MST; 21 nM RED-NHS labelled SSBNm, RecGNm titrated; 20 mM HEPES pH 7.5, 300 mM NaCl, 0.05% Tween 20, 0.1% Pluronic F-127, 0.1% PEG 8000, 2 mM DTT; 22°C, 40% MST power. Conditions: both partners purified.

For the molecule `Nc1ncnc2c1ncn2[C@@H]1O[C@H](COP(=O)(O)OP(=O)(O)OP(=O)(O)O)[C@@H](O)[C@H]1O` [ATP], the “% ATP hydrolysis” value at RecGNm is reported as “RecGNm displayed comparable capacity of ATP hydrolysis in the presence of different types of branched”.

B1: Neisseria meningitidis single-stranded DNA-binding protein SSB (natural protein, Neisseria meningitidis strain MC58, UniProt P66848 1-174, looked up)
chain: MSLNKVILIGRLGRDPEVRYMPNGEAVCNFSVATSETWNDRNGQRVERTEWHNITMYRKLAEIAGQYLKKGGLVYLEGRIQSRKYQGKDGIERTAYDIVANEMKMLGGRNENSGGAPYEEGYGQSQEAYQRPAQQSRQPASDAPSHPQEAPAAPRRQPVPAAAPVEDIDDDIPF
modifications: Monolith NT Protein Labeling Kit RED-NHS dye, degree of labelling 0.65 (in the MST only)
notes: It was unlabelled in the gel filtration and RED-NHS labelled in the MST; also called SSBNm; source: plasmid pEH1 (pQE-30 harboring ssb from Nm MC58)
The Kd is the free concentration of one partner at which half of the binding sites on the other are occupied at equilibrium, for simple one-to-one binding. Consider B1, for which, in assay [1], the Kd was 558 ± 139 nM.
